# Reference: US10239873B2, “7-azaindole or 4,7-diazaindole derivatives as IKKϵ epsilon and TBK1 inhibitor and pharmaceutical composition comprising same” (GREEN CROSS CORPORATION, priority 2015, dated 2019)
# pIC50: −log10 of the molar value.
# Molecular target: T1, TBK1 (Homo sapiens, UniProt Q9UHD2)
# T1 construct: purchased Promega (Invitrogen is also named in the same bracket) V4158; PR8031B; V3991 (not assigned to the two kinases)
# T1 sequence (Q9UHD2 1-729): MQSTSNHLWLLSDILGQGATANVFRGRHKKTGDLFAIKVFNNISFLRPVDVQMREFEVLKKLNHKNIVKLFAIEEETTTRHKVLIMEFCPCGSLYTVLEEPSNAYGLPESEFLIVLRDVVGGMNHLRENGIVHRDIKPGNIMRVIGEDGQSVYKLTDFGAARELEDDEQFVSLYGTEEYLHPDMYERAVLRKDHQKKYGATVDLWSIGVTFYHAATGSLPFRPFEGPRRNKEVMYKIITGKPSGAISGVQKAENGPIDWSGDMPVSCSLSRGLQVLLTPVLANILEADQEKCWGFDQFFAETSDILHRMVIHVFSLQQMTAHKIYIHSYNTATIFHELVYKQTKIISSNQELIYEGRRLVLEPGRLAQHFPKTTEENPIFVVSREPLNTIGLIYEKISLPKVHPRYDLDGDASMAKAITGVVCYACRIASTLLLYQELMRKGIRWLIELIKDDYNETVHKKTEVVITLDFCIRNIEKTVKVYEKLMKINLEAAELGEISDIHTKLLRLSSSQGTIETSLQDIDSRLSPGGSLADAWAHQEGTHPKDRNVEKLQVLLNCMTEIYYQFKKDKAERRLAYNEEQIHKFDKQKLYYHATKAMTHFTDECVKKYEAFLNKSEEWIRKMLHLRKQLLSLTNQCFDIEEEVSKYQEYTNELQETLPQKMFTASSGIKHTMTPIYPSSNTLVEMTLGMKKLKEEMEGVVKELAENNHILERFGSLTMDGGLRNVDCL
# Assay: ADP-Glo Kinase Assay, inhibition activity on TBK1
# Type: biochemical
# In short: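 In 40 mM Tris pH 7.5 with 20 mM MgCl2 and 0.1 mg/mL BSA, each enzyme (IKKε or TBK1 kinase system) was run according to the manufacturer's protocol. ADP formed was detected by ADP-Glo luminescence.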
row,SMILES,pIC50
1,"O=C(OC1CCCC1)N1CC=C(c2c[nH]c3ncc(-c4cccc(C(=O)N5CCOCC5)c4)cc23)CC1 [Example 184, Cyclopentyl 4-(5-(3-(morpholine-4-carbonyl)phenyl)-1H-pyrrolo[2,3-b]pyridin-3-yl)-5,6-dihydropyridine-1(2H)-carboxylate]",7.00
2,"O=C(OC1CCCC1)N1CC=C(c2c[nH]c3ncc(-c4csc(CN5CCOCC5)c4)cc23)CC1 [Example 185, Cyclopentyl 4-(5-(5-(morpholinomethyl)thiophen-3-yl)-1H-pyrrolo[2,3-b]pyridin-3-yl)-5,6-dihydropyridine-1(2H)-carboxylate]",7.09
3,"O=C(OC1CCCC1)N1CC=C(c2c[nH]c3ncc(-c4ccc(CN5CCOCC5)s4)cc23)CC1 [Example 186, Cyclopentyl 4-(5-(5-(morpholinomethyl)thiophen-2-yl)-1H-pyrrolo[2,3-b]pyridin-3-yl)-5,6-dihydropyridine-1(2H)-carboxylate]",6.80
4,"COc1ccc(-c2cnc3[nH]cc(C4=CCCN(C(=O)OC(C)(C)C)CC4)c3c2)cc1OC [Example 187, tert-Butyl 4-(5-(3,4-dimethoxyphenyl)-1H-pyrrolo[2,3-b]pyridin-3-yl)-2,3,6,7-tetrahydro-1H-azepine-1-carboxylate]",5.48
5,"COc1ccc(-c2cnc3[nH]cc(C4=CCN(C(=O)OC(C)(C)C)CCC4)c3c2)cc1OC [Example 188, tert-Butyl 5-(5-(3,4-dimethoxyphenyl)-1H-pyrrolo[2,3-b]pyridin-3-yl)-2,3,4,7-tetrahydro-1H-azepine-1-carboxylate]",5.31
6,"COc1ccc(-c2cnc3[nH]cc(C4=CCN(C(=O)c5cccs5)CC4)c3c2)cc1OC [Example 191, (4-(5-(3,4-Dimethoxyphenyl)-1H-pyrrolo[2,3-b]pyridin-3-yl)-5,6-dihydropyridin-1(2H)-yl)(thiophen-2-yl)methanone]",6.96
7,"COc1ccc(-c2cnc3[nH]cc(C4=CCN(C(=O)c5cccs5)CC4)c3c2)cc1F [Example 192, (4-(5-(3-Fluoro-4-methoxyphenyl)-1H-pyrrolo[2,3-b]pyridin-3-yl)-5,6-dihydropyridin-1(2H)-yl)(thiophen-2-yl)methanone]",6.34
8,"COc1ccc(-c2cnc3[nH]cc(C4=CCN(C(=O)c5cccs5)CC4)c3c2)cc1S(=O)(=O)N1CCOCC1 [Example 203, (4-(5-(4-methoxy-3-(morpholinosulfonyl)phenyl)-1H-pyrrolo[2,3-b]pyridin-3-yl)-5,6-di hydropyridin-1(2H)-yl)(thiophen-2-yl)methanone]",7.41
9,"O=C(c1cccs1)N1CC=C(c2c[nH]c3ncc(-c4ccc(CN5CCOCC5)s4)cc23)CC1 [Example 206, (4-(5-(5-(morpholinomethyl)thiophen-2-yl)-1H-pyrrolo[2,3-b]pyridin-3-yl)-5,6-dihydropyridin-1(2H)-yl)(thiophen-2-yl)methanone]",7.31
10,"O=C(c1cccs1)N1CC=C(c2c[nH]c3ncc(-c4csc(CN5CCOCC5)c4)cc23)CC1 [Example 207, (4-(5-(5-(morpholinomethyl)thiophen-3-yl)-1H-pyrrolo[2,3-b]pyridin-3-yl)-5,6-dihydropyridin-1(2H)-yl)(thiophen-2-yl)methanone]",7.32
11,"O=C(c1cccc(-c2cnc3[nH]cc(C4=CCN(C(=O)c5cccs5)CC4)c3c2)c1)N1CCOCC1 [Example 208, (4-(5-(3-(morpholine-4-carbonyl)phenyl)-1H-pyrrolo[2,3-b]pyridin-3-yl)-5,6-dihydropyridin-1(2H)-yl)(thiophen-2-yl)methanone]",6.72
12,"COc1ccc(-c2cnc3[nH]cc(C4=CCN(C(=O)c5ccc(C)s5)CC4)c3c2)cc1OC [Example 210, (4-(5-(3,4-dimethoxyphenyl)-1H-pyrrolo[2,3-b]pyridin-3-yl)-5,6-dihydropyridin-1(2H)-yl)(5-methylthiophen-2-yl)methanone]",5.52
13,"Cc1ccc(C(=O)N2CC=C(c3c[nH]c4ncc(-c5ccc(S(C)(=O)=O)cc5)cc34)CC2)s1 [Example 211, (4-(5-(4-(methylsulfonyl)phenyl)-1H-pyrrolo[2,3-b]pyridin-3-yl)-5,6-dihydropyridin-1(2H)-yl)(5-methylthiophen-2-yl)methanone]",5.46
14,"Cc1ccc(C(=O)N2CC=C(c3c[nH]c4ncc(-c5ccc(S(N)(=O)=O)cc5)cc34)CC2)s1 [Example 212, 4-(3-(1-(5-methylthiophene-2-carbonyl)-1,2,3,6-tetrahydropyridin-4-yl)-1H-pyrrolo[2,3-b]pyridin-5-yl)benzensulfonamide]",5.59
15,"COc1ccc(-c2cnc3[nH]cc(C4=CCN(C(=O)c5cccs5)CC4C)c3c2)cc1OC (stereo not drawn) [Example 213, (4-(5-(3,4-dimethoxyphenyl)-1H-pyrrolo[2,3-b]pyridin-3-yl)-5-methyl-5,6-dihydropyridin-1(2H)-yl)(thiophen-2-yl)methanone]",6.74
16,"CC1CN(C(=O)c2cccs2)CC=C1c1c[nH]c2ncc(-c3ccc(S(C)(=O)=O)cc3)cc12 (stereo not drawn) [Example 214, (5-methyl-4-(5-(4-(methylsulfonyl)phenyl)-1H-pyrrolo[2,3-b]pyridin-3-yl)-5,6-dihydropyridin-1(2H)-yl)(thiophen-2-yl)methanone]",7.11

# The next lines start with the values.
row,pIC50,SMILES
1,< 5.00,"O=C(c1cccs1)N1CC=C(c2c[nH]c3ncc(-c4ccc(F)c(F)c4)cc23)CC1 [Example 189, (4-(5-(3,4-Difluorophenyl)-1H-pyrrolo[2,3-b]pyridin-3-yl)-5,6-dihydropyridin-1(2H)-yl)(thiophen-2-yl)methanone]"
2,7.44,"CS(=O)(=O)c1cccc(-c2cnc3[nH]cc(C4=CCN(C(=O)c5cccs5)CC4)c3c2)c1 [Example 193, (4-(5-(3-(Methylsulfonyl)phenyl)-1H-pyrrolo[2,3-b]pyridin-3-yl)-5,6-dihydropyridin-1(2H)-yl)(thiophen-2-yl)methanone]"
3,< 5.00,"CS(=O)(=O)c1ccc(-c2cnc3[nH]cc(C4=CCN(C(=O)c5cccs5)CC4)c3c2)cc1 [Example 194, (4-(5-(4-(methylsulfonyl)phenyl)-1H-pyrrolo[2,3-b]pyridin-3-yl)-5,6-dihydropyridin-1(2H)-yl)(thiophen-2-yl)methanone]"
4,7.21,"CCS(=O)(=O)c1cccc(-c2cnc3[nH]cc(C4=CCN(C(=O)c5cccs5)CC4)c3c2)c1 [Example 195, (4-(5-(3-(ethylsulfonyl)phenyl)-1H-pyrrolo[2,3-b]pyridin-3-yl)-5,6-dihydropyridin-1(2H)-yl)(thiophen-2-yl)methanone]"
5,6.60,"O=C(c1cccs1)N1CC=C(c2c[nH]c3ncc(-c4ccc(S(=O)(=O)C5CC5)cc4)cc23)CC1 [Example 196, (4-(5-(4-(cyclopropylsulfonyl)phenyl)-1H-pyrrolo[2,3-b]pyridin-3-yl)-5,6-dihydropyridin-1(2H)-yl)(thiophen-2-yl)methanone]"
6,7.55,"NS(=O)(=O)c1ccc(-c2cnc3[nH]cc(C4=CCN(C(=O)c5cccs5)CC4)c3c2)cc1 [Example 197, 4-(3-(1-(thiophene-2-carbonyl)-1,2,3,6-tetrahydropyridin-4-yl)-1H-pyrrolo[2,3-b]pyridin-5-yl)benzensulfonamide]"
7,7.82,"NS(=O)(=O)c1cccc(-c2cnc3[nH]cc(C4=CCN(C(=O)c5cccs5)CC4)c3c2)c1 [Example 198, 3-(3-(1-(thiophene-2-carbonyl)-1,2,3,6-tetrahydropyridin-4-yl)-1H-pyrrolo[2,3-b]pyridin-5-yl)benzensulfonamide]"
8,7.47,"CNS(=O)(=O)c1cccc(-c2cnc3[nH]cc(C4=CCN(C(=O)c5cccs5)CC4)c3c2)c1 [Example 199, N-methyl-3-(3-(1-(thiophene-2-carbonyl)-1,2,3,6-tetrahydropyridin-4-yl)-1H-pyrrolo[2,3-b]pyridin-5-yl)benzensulfonamide]"
9,7.35,"CNS(=O)(=O)c1ccc(-c2cnc3[nH]cc(C4=CCN(C(=O)c5cccs5)CC4)c3c2)cc1 [Example 200, N-methyl-4-(3-(1-(thiophene-2-carbonyl)-1,2,3,6-tetrahydropyridin-4-yl)-1H-pyrrolo[2,3-b]pyridin-5-yl)benzensulfonamide]"
10,< 5.00,"CS(=O)(=O)Nc1cccc(-c2cnc3[nH]cc(C4=CCN(C(=O)c5cccs5)CC4)c3c2)c1 [Example 201, N-(3-(3-(1-(thiophene-2-carbonyl)-1,2,3,6-tetrahydropyridin-4-yl)-1H-pyrrolo[2,3-b]pyridin-5-yl)phenyl)methansulfonamide]"
11,6.64,"O=C(c1cccs1)N1CC=C(c2c[nH]c3ncc(-c4cccc(S(=O)(=O)N5CCOCC5)c4)cc23)CC1 [Example 202, (4-(5-(3-(morpholinosulfonyl)phenyl)-1H-pyrrolo[2,3-b]pyridin-3-yl)-5,6-dihydropyridin-1(2H)-yl)(thiophen-2-yl)methanone]"
